Results on eight molecules are retold here after PubChem BioAssay (NCI).

The term TGI denotes the concentration at which net growth stops.

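96-well plates; 48 h exposure; 5 concentrations. Endpoints by linear interpolation between flanking doses. Not reached: highest tested concentration assigned. TGI marks complete inhibition of growth.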 Where only a bound is given, the exact number is not on record here.

Some test systems named below: BT-549 breast; NCI-H522 lung; RXF 393 renal; NCI-H460 lung; MOLT-4 leukemia; MDA-MB-435; SNB-19 CNS; OVCAR-3 ovarian; T-47D breast; OVCAR-4 ovarian; UO-31 renal; M14 melanoma; KM12 colon; HS 578T breast; RPMI-8226 leukemia; HL-60(TB) leukemia; HOP-62 NSCLC; SF-268 CNS.
What all share (experiment): DTP human tumour cell line panel, 48 h

For the molecule `COC(=O)c1ccccc1C#CC#Cc1ccccc1C(=O)OC`, the TGI in the test with BT-549 breast, with NCI-H522 lung, in the test on RXF 393 renal, in the test with NCI-H460 lung, with MOLT-4 leukemia and with MDA-MB-435 was over 10 µM throughout. Also, the TGI with SNB-19 CNS is over 10 µM; in the test on OVCAR-3 ovarian, 7.91 µM; in the test with T-47D breast it was over 10 µM; in the test with OVCAR-4 ovarian it was over 10 µM; in the test on UO-31 renal it was over 10 µM; in the test on M14 melanoma it was over 10 µM. Also, the TGI with KM12 colon was over 10 µM; with HS 578T breast it was over 10 µM; in the test with RPMI-8226 leukemia, over 10 µM; with HL-60(TB) leukemia it was 8.25 µM; in the test on HOP-62 NSCLC, over 10 µM; with SF-268 CNS it was over 10 µM.

For the molecule `Clc1cc2c(c(CSC3=NCN(CC4CC4)CN3)c1)OCOC2`, the total growth inhibition concentration (TGI) in the test on BT-549 breast turned out to be 51.5 µM; with NCI-H522 lung, 30.1 µM; in the test with RXF 393 renal it was 36.9 µM; in the test on NCI-H460 lung, 39.6 µM; in the test with MOLT-4 leukemia, 64 µM; in the test on MDA-MB-435, 74.3 µM. Further, the TGI is over 100 µM in the test with SNB-19 CNS; over 100 µM in the test on OVCAR-3 ovarian; 62.2 µM in the test on T-47D breast; over 100 µM in the test with OVCAR-4 ovarian; 37.1 µM in the test on UO-31 renal; 27.9 µM in the test on M14 melanoma. Further, the TGI is over 100 µM in the test on KM12 colon; over 100 µM in the test on HS 578T breast; 38.2 µM in the test on RPMI-8226 leukemia; 33.7 µM with HL-60(TB) leukemia; 86.7 µM in the test on HOP-62 NSCLC; 98.3 µM in the test with SF-268 CNS.

With `COc1cc(OC)c2c(O)c3c(cc2c1)CC(C)(C)CC3=O`, the TGI with BT-549 breast, in the test with NCI-H522 lung, with RXF 393 renal, with NCI-H460 lung, with MOLT-4 leukemia and in the test on MDA-MB-435 was over 100 µM each time. Also, the TGI in the test on SNB-19 CNS, in the test on OVCAR-3 ovarian, with T-47D breast, in the test on OVCAR-4 ovarian, in the test on UO-31 renal and in the test with M14 melanoma was over 100 µM each time. Also, the TGI in the test with KM12 colon, in the test on HS 578T breast, in the test on RPMI-8226 leukemia, in the test with HL-60(TB) leukemia, in the test on HOP-62 NSCLC and in the test on SF-268 CNS was over 100 µM throughout.

For the molecule `O=C1CSC(/C(=C\c2ccc(Cl)cc2)c2nc3ccccc3[nH]2)=N1`, the TGI with BT-549 breast was 36.6 µM; in the test with NCI-H522 lung it was 12.6 µM; in the test on RXF 393 renal, 2.14 µM; in the test on NCI-H460 lung, 32.2 µM; in the test with MOLT-4 leukemia it was over 100 µM; with MDA-MB-435 it was 32.6 µM. Besides, the TGI with SNB-19 CNS was found to be 33.9 µM; in the test on OVCAR-3 ovarian, 20.9 µM; with T-47D breast, 31.7 µM; in the test with OVCAR-4 ovarian it was 31.8 µM; in the test with UO-31 renal, 7.64 µM; with M14 melanoma it was 40.3 µM. Also, the TGI is 28.5 µM in the test on KM12 colon; 53.2 µM in the test with HS 578T breast; over 100 µM in the test with RPMI-8226 leukemia; over 68.8 µM in the test with HL-60(TB) leukemia; 5.82 µM in the test with HOP-62 NSCLC; 23 µM in the test with SF-268 CNS.

As for `COC(=O)C1=C(C)NC2(O)C=CC(=O)C3C(=O)N(c4ccccc4)C(=O)C132` (centres undefined), the TGI in the test with BT-549 breast, with NCI-H522 lung, in the test with RXF 393 renal, in the test on NCI-H460 lung, in the test with MOLT-4 leukemia and in the test on MDA-MB-435 was over 100 µM in each case. Moreover, the total growth inhibition concentration (TGI) in the test with SNB-19 CNS, in the test on OVCAR-3 ovarian, in the test with T-47D breast, with OVCAR-4 ovarian, with UO-31 renal and in the test on M14 melanoma was over 100 µM throughout. The TGI in the test on KM12 colon, in the test on HS 578T breast, with RPMI-8226 leukemia, in the test on HL-60(TB) leukemia, with HOP-62 NSCLC and in the test on SF-268 CNS was over 100 µM in each case.

Turning to `c1ccc(C2=Nc3nc4ccccc4n3C(c3ccccc3)C2)cc1` (centres undefined), the TGI with BT-549 breast, in the test on NCI-H522 lung, in the test on RXF 393 renal, in the test with NCI-H460 lung, in the test with MOLT-4 leukemia and in the test with MDA-MB-435 was over 100 µM each time. In addition, the TGI in the test with SNB-19 CNS, in the test on OVCAR-3 ovarian, with T-47D breast, in the test with OVCAR-4 ovarian, in the test with UO-31 renal and in the test on M14 melanoma was over 100 µM each time. Also, the TGI with KM12 colon, with HS 578T breast, in the test with RPMI-8226 leukemia, with HL-60(TB) leukemia, in the test on HOP-62 NSCLC and in the test on SF-268 CNS was over 100 µM in each case.

Turning to `CCOC(=O)N1CCN(c2ccc3c(C)cc(C)nc3n2)CC1`, the TGI in the test on BT-549 breast, with NCI-H522 lung, with RXF 393 renal, in the test on NCI-H460 lung, in the test on MOLT-4 leukemia and in the test on MDA-MB-435 was over 100 µM in each case. Besides, the TGI in the test with SNB-19 CNS, with OVCAR-3 ovarian, in the test on T-47D breast, in the test on OVCAR-4 ovarian, in the test with UO-31 renal and with M14 melanoma was over 100 µM in each case. For the same molecule, the TGI in the test on KM12 colon, in the test with HS 578T breast, in the test with RPMI-8226 leukemia, with HL-60(TB) leukemia, in the test on HOP-62 NSCLC and in the test with SF-268 CNS was over 100 µM in each case.

As for `CN1C(=S)C(c2ccccc2)Sc2ccccc21` (centres undefined), the TGI in the test with BT-549 breast, in the test with NCI-H522 lung, with RXF 393 renal, with NCI-H460 lung, with MOLT-4 leukemia and in the test with MDA-MB-435 was over 100 µM throughout. Also, the TGI in the test on SNB-19 CNS, in the test on OVCAR-3 ovarian, in the test with T-47D breast, in the test with OVCAR-4 ovarian, in the test on UO-31 renal and in the test with M14 melanoma was over 100 µM throughout. Besides, the TGI with KM12 colon, in the test with HS 578T breast, in the test on RPMI-8226 leukemia, in the test on HL-60(TB) leukemia, in the test on HOP-62 NSCLC and with SF-268 CNS was over 100 µM throughout.
